Measured values reported in US7960131B2, “Functional genomic pore assay for mixed cell populations” (Wisconsin Alumni Research Foundation, priority 2003, dated 2011).

Key:
[1] = biological target: T1, P2X7-G150R (Homo sapiens, UniProt Q99572, G150R); test: YO-PRO-1 uptake fluorimetric plate assay in transfected HEK 293 cells, P2X7-G150R; type: cell-based; settings: G150R (G474A) mutant, also in more permissive buffer lacking NaCl
T1 construct: expressed in transfected cells
T1 sequence (Q99572 1-595 G150R): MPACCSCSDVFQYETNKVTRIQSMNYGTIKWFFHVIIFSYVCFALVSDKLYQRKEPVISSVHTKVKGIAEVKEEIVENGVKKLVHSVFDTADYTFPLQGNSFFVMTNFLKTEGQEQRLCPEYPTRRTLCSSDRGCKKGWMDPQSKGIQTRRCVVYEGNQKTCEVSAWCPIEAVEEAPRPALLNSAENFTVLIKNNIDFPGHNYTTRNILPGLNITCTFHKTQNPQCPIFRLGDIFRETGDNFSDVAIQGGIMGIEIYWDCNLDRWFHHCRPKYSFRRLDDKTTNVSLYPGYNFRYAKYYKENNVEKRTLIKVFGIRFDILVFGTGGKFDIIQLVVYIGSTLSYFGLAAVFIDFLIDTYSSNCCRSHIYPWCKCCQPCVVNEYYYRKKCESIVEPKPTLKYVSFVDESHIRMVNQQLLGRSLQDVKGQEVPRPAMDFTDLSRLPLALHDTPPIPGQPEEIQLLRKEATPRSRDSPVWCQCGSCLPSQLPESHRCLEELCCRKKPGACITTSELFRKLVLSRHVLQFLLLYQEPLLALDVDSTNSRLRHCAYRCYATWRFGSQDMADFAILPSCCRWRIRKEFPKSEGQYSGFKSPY
Description: Recombinant Expression and Functional Characterization of Variant P2RX7 Alleles. A pcDNA3 expression vector containing a cloned human P2RX7 cDNA associated with normal pore activity was subjected to point mutagenesis using the Quick Change Kit (Stratagene Inc., city, state) to create the variants P2X7-G150R, P2X7-Q460R, and P2X7-E496A. HEK 293 cells were transfected by the Superfect liposomal method and stable populations were selected by G418 resistance. Expression of P2X7 mRNA and protein in unstimulated transfected HEK cell cultures was verified by RT-PCR and immunoblotting as previously described.
YO-PRO-1 fluorescence was measured by a Synergy-HT fluorescent plate reader (Biotek, city, state) using X±Y nm excitation and A±B emission filters.

[2] = test system: P2X7 receptor; test: Bead-standardized whole blood/PBMC monocyte P2X7 pore assay with PI exclusion of nonviable cells; type: cell-based, human; settings: for BzATP Stimulated YO-PRO-1 measurement, Mean: viable monocytes
Experimental: PBMC Isolation. Six mLs of citrate-treated blood was underlayed with three mLs of Lymphoprep (Axis-Sheild, Oslo, Norway) and centrifuged at 800 g for 30 minutes at room temperature. The cellular interface was collected and washed twice with sterile phosphate-buffered saline (PBS). Cells were counted and assayed for pore activity as described below.
Sample Preparation. Although all leukocytes studied to date express P2X7, monocytes were selected as the cell population to screen because of the greater sensitivity of pore function noted between individuals participating in a small study with forty-five healthy subjects (5, 34). Staining procedures were as previously described (10, 14, 34). Briefly, aliquots of citrated whole blood ([…]) were washed twice in HEPES-buffered saline (HBS; 130 mM NaCl, 5 mM KCl, 20 mM HEPES pH 7.4, 0.1% bovine serum albumin, 10 mM glucose; components purchased at Sigma, St. Louis, Mo.) and resuspended in the original 500 L volume. A 10 μL aliquot of anti-human CD14 antibody conjugated to phycoerythrin (CD14-PE, 50 μg/mL; BD Biosciences, San Diego, Calif.) was added to each sample and incubated at room temperature for 20 min. The cells were washed twice in a potassium glutamate buffer (130 mM potassium glutamate, 5 mM KCl, 20 mM HEPES pH 7.4, 0.1% bovine serum albumin, 10 mM glucose; components from Sigma) to maximize the differences between high and low pore activities (17).
Samples were adjusted to 10 mM magnesium chloride, washed in HEPES-buffered saline and diluted to a volume of 2.5 mL in HBS. These latter steps have been previously shown to close the pore rapidly allowing for kinetic precision in a large clinical study (10, 34). For the methods described here, including all the samples from the MIA trial (Table 3), propidium iodide (PI; 5 μg/mL) was added to each sample and incubated for 15 min prior to sample acquisition using flow cytometry as described below.
Determination of Instrument Settings and Calculation of Spectral Overlap. All instruments in the facility are cleaned daily and assessed for laser alignment, photomultiplier tube (PMT) performance, linearity and noise. All fluorochromes were excited with a 488 nm laser and the following filter sets were used in all flow cytometers: a BP 530/30 for YO-PRO-1, a BP 585/42 for PE and a LP 670 for propidium iodide. Experiments were performed on FACScan, FACSCalibur, and LSR II flow cytometers (Becton Dickinson, San Jose, Calif.) in conjunction with the CellQuest, CellQuestPro, FACSDiva acquisition and analysis software programs (v. 3.3, v. 4.0, and v. 5.0.1, respectively; Becton Dickinson).
Previously, pore activity was measured on a FACScan flow cytometer (Becton Dickinson, San Jose, Calif.) using recalled instrument settings: YO-PRO-1 at 410 mV, PE at 412 mV, acquisition threshold for PE at 324 mV, and PE-32.6% YO-PRO-1 compensation (10). To facilitate comparisons across instrument platforms and among laboratories, we used these recalled settings as a template to adapt desired PMT voltages for SpheroTM Rainbow fluorescent particles (mid-range 3.0-3.4 μm; Sperotech, Lake Forest Ill.), corresponding data shown in FIG. 15. Rainbow particles have a very stable fluorescence and can be stored and used over a long period of time, allowing the intensities of these particles in each fluorescent detector to serve as target values for determining the voltages applied to each PMT for all of the cytometers used.
The same target values were used for the analog instruments, FACScan and FACSCalibur (BD Biosciences, San Jose, Calif.) because these instruments process fluorescence signals in the same way and the intensities determined were very close (data not shown). The LSR II (BD Biosciences, San Jose, Calif.) uses digital processing and fluorescence is collected and sampled differently so a second set of target values using these same samples was determined for each color detector on this cytometer. […]

2′-3′-O-(4-benzoylbenzoyl)-adenosine 5′-triphosphate [Bz-ATP]
agonist stimulated increase in YO-PRO-1 fluorescence [1]: loss of pore function
agonist stimulated increase in YO-PRO-1 fluorescence ([1]; listed as BzATP): no agonist stimulated increase in fluorescence
BzATP Stimulated median YO-PRO-1 fluorescence ([2]; Ficoll prep PBMC, A, Bead-Adjusted compensation): 292
BzATP Stimulated YO-PRO-1 measurement, Mean ([2]; Low Responder donor, Bead Adjusted PMT method): 30.1
BzATP Stimulated YO-PRO-1 measurement, Mean ([2]; Low Responder donor, Recalled PMT method): 30.0
BzATP Stimulated YO-PRO-1 measurement, Mean ([2]; Normal Responder donor, Bead Adjusted PMT method): 1019.0
BzATP Stimulated YO-PRO-1 measurement, Mean ([2]; Normal Responder donor, Recalled PMT method): 983.0
BzATP Stimulated median YO-PRO-1 fluorescence ([2]; Whole blood, A, Bead-Adjusted compensation): 276
BzATP Stimulated median YO-PRO-1 fluorescence ([2]; Whole blood, B, Uncompensated): 30.7
BzATP Stimulated median YO-PRO-1 fluorescence ([2]; Whole blood, B, YO-PRO-PE Set at 2%): 27.4
BzATP Stimulated median YO-PRO-1 fluorescence ([2]; Whole blood, C, Uncompensated): 1071
BzATP Stimulated median YO-PRO-1 fluorescence ([2]; Whole blood, C, YO-PRO-PE Set at 2%): 1067
